Measurements from PubChem BioAssay AID192 (DTP/NCI, 2004).
“And” between values parts separate entries of the source, which are not always exact repeats. Equal values may be shown once. Toxic doses and inconclusive results are not listed. How the source made its calls: active means survival T/C of 150% or more; inactive means T/C below 125% in these data. Numbered stars: 1 amine (or outer) side, 2 acyl side, 3 side chain; on linkers, the order of the positions; unused ones are H or OH. Bridge positions count the residues as written; N and C are the ends. Square brackets hold non-standard residues; d marks the D form. Peptide text beside a SMILES is read from it. I, II: the chains in the order shown. Actinocin(1to9) = Cc1c2oc3c(C)ccc(C(=O)[*:2])c3nc-2c(C(=O)[*:1])c(N)c1=O; X1 = O=C1CC(C(=O)[*:2])N([*:1])C1; NMeV = CN[CH](C(=O)O)C(C)C; Sar = CNCC(=O)O

System: BDF1 mice, B16 melanoma ip, median survival T/C
Test: NCI In Vivo Anticancer Drug Screen. Data for tumor model B16 Melanoma (intraperitoneal) in B6D2F1 (BDF1) mice
Settings: endpoint: median survival time, higher = longer survival
Method in brief: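 Compounds were tested in mice carrying transplantable tumors. Survival or tumor size was recorded, and each value is the treated-group measurement (T) divided by that of the vehicle-treated control group (C).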

[1] = dose: 1.56 mg/kg/injection, schedule: Q01DX009 (ip), vehicle: Klucel (hydroxypropylcellulose) (HPC)
[2] = dose: 6.25 mg/kg/injection, schedule: Q01DX009 (ip), vehicle: Klucel (hydroxypropylcellulose) (HPC)
[3] = dose: 12.5 mg/kg/injection, schedule: Q01DX009 (ip), vehicle: Klucel (hydroxypropylcellulose) (HPC)
[4] = dose: 25.0 mg/kg/injection, schedule: Q01DX009 (ip), vehicle: Klucel (hydroxypropylcellulose) (HPC)
[5] = dose: 50.0 mg/kg/injection, schedule: Q01DX009 (ip), vehicle: Klucel (hydroxypropylcellulose) (HPC)
[6] = dose: 6.25 mg/kg/injection, schedule: Q01DX009 (ip), vehicle: saline
[7] = dose: 12.5 mg/kg/injection, schedule: Q01DX009 (ip), vehicle: saline
[8] = dose: 25.0 mg/kg/injection, schedule: Q01DX009 (ip), vehicle: saline
[9] = dose: 12.5 mg/kg/injection, schedule: Q01DX009 (ip), vehicle: saline with Tween-80
[10] = dose: 25.0 mg/kg/injection, schedule: Q01DX009 (ip), vehicle: saline with Tween-80
[11] = dose: 50.0 mg/kg/injection, schedule: Q01DX009 (ip), vehicle: saline with Tween-80
[12] = dose: 100.0 mg/kg/injection, schedule: Q01DX009 (ip), vehicle: Klucel (hydroxypropylcellulose) (HPC)
[13] = dose: 100.0 mg/kg/injection, schedule: Q01DX009 (ip), vehicle: saline with Tween-80

Measured: T/C

NC(=O)Nc1cc(NC(N)=O)cc(N(CCCl)CCCl)c1
inactive: [1] 88 % of control | dose: 3.13 mg/kg/injection, schedule: Q01DX009 (ip), vehicle: Klucel (hydroxypropylcellulose) (HPC) 101 % of control | [2] 91 % of control | [3] 96 % of control | [4] 108 % of control | [5] 98 % of control

CC1CN1P1(N2CC2C)=NP(N2CC2C)(N2CC2C)=NP(N2CC2C)(N2CC2C)=N1 (centres undefined)
inactive: dose: 0.78 mg/kg/injection, schedule: Q01DX009 (ip), vehicle: saline 111 % of control | dose: 1.0 mg/kg/injection, schedule: Q01DX009 (ip), vehicle: saline 89 % of control and 99 % of control | dose: 1.0 mg/kg/injection, schedule: Q02DX009 (ip), vehicle: saline 91 % of control and 100 % of control | dose: 1.56 mg/kg/injection, schedule: Q01DX009 (ip), vehicle: saline 104 % of control | dose: 2.0 mg/kg/injection, schedule: Q01DX009 (ip), vehicle: saline 96 % of control and 103 % of control | dose: 2.0 mg/kg/injection, schedule: Q02DX009 (ip), vehicle: saline 100 % of control and 105 % of control and 107 % of control | dose: 3.12 mg/kg/injection, schedule: Q01DX009 (ip), vehicle: saline 105 % of control | dose: 4.0 mg/kg/injection, schedule: Q01DX009 (ip), vehicle: saline 110 % of control and 116 % of control | dose: 4.0 mg/kg/injection, schedule: Q02DX009 (ip), vehicle: saline 99 % of control and 103 % of control and 110 % of control | [6] 97 % of control and 117 % of control | dose: 8.0 mg/kg/injection, schedule: Q01DX009 (ip), vehicle: saline 107 % of control | dose: 8.0 mg/kg/injection, schedule: Q02DX009 (ip), vehicle: saline 108 % of control and 109 % of control and 112 % of control | [7] 116 % of control | dose: 16.0 mg/kg/injection, schedule: Q01DX009 (ip), vehicle: saline 117 % of control | dose: 16.0 mg/kg/injection, schedule: Q02DX009 (ip), vehicle: saline 101 % of control and 112 % of control and 116 % of control | [8] 114 % of control and 118 % of control | dose: 32.0 mg/kg/injection, schedule: Q01DX009 (ip), vehicle: saline 110 % of control | dose: 32.0 mg/kg/injection, schedule: Q02DX009 (ip), vehicle: saline 109 % of control | dose: 64.0 mg/kg/injection, schedule: Q01DX009 (ip), vehicle: saline 105 % of control | dose: 64.0 mg/kg/injection, schedule: Q02DX009 (ip), vehicle: saline 115 % of control

Cc1c2oc3c(C)ccc(C(=O)NC4C(=O)NC(C(C)C)C(=O)N5CCCC5C(=O)N(C)CC(=O)N(C)C(C(C)C)C(=O)OC4C)c3nc-2c(C(=O)NC2C(=O)NC(C(C)C)C(=O)N3CC(=O)CC3C(=O)N(C)CC(=O)N(C)C(C(C)C)C(=O)OC2C)c(N)c1=O (centres undefined) (I: TV[X1][Sar][NMeV] / II: TVP[Sar][NMeV]; ester I:1-I:C, II:1-II:C; linker I:N-II:N via Actinocin(1to9); configuration not given here)
inactive: dose: 6.2 micrograms/kg/injection, schedule: Q01DX009 (ip), vehicle: water 123 % of control | dose: 9.4 micrograms/kg/injection, schedule: Q04DX003 (ip), vehicle: water 106 % of control | dose: 18.7 micrograms/kg/injection, schedule: Q04DX003 (ip), vehicle: water 123 % of control | dose: 25.0 micrograms/kg/injection, schedule: Q01DX001 (ip), vehicle: water 123 % of control | dose: 50.0 micrograms/kg/injection, schedule: Q01DX001 (ip), vehicle: water 116 % of control | dose: 100.0 micrograms/kg/injection, schedule: Q01DX001 (ip), vehicle: water 106 % of control

Cc1ccc(S(=O)(=O)OC2CCN(C)CC2)cc1
inactive: dose: 3.0 mg/kg/injection, schedule: Q04DX003 (ip), vehicle: Klucel (hydroxypropylcellulose) (HPC) 90 % of control | dose: 6.0 mg/kg/injection, schedule: Q04DX003 (ip), vehicle: Klucel (hydroxypropylcellulose) (HPC) 86 % of control | [6] 100 % of control | dose: 6.25 mg/kg/injection, schedule: Q04DX003 (ip), vehicle: saline 94 % of control | [7] 100 % of control | dose: 12.5 mg/kg/injection, schedule: Q04DX003 (ip), vehicle: saline 97 % of control | [8] 100 % of control | dose: 25.0 mg/kg/injection, schedule: Q04DX003 (ip), vehicle: saline 94 % of control

CN(C)C1CCN(Cc2ccccc2)CC1
inactive: dose: 50.0 mg/kg/injection, schedule: Q04DX003 (ip), vehicle: saline 100 % of control | dose: 100.0 mg/kg/injection, schedule: Q04DX003 (ip), vehicle: saline 90 % of control | dose: 200.0 mg/kg/injection, schedule: Q04DX003 (ip), vehicle: saline 93 % of control

CCCCOC(=O)c1ccc(NC(=O)Nc2ccccc2Cl)cc1
inactive: [9] 102 % of control | [10] 102 % of control | [11] 88 % of control and 100 % of control

CCN(CC)CCNc1ccc(N=Nc2cnc3ccccc3c2)c2ccccc12
inactive: [10] 90 % of control | [11] 94 % of control

Cc1ccc(NC(=O)Nc2ccc(Cl)c(Cl)c2)cc1Cl
inactive: [4] 96 % of control | [5] 105 % of control

CCCCCCCCCCCCCCCCNS(=O)(=O)c1ccc(NN)cc1
inactive: [3] 93 % of control | [4] 96 % of control | [5] 89 % of control and 90 % of control

CCN(CC)C(=O)C1CN2CCc3cc(OC)c(OC)cc3C2CC1OC(C)=O (centres undefined)
inactive: dose: 0.39 mg/kg/injection, schedule: Q01DX009 (ip), vehicle: Klucel (hydroxypropylcellulose) (HPC) 95 % of control | dose: 0.78 mg/kg/injection, schedule: Q01DX009 (ip), vehicle: Klucel (hydroxypropylcellulose) (HPC) 86 % of control | [1] 96 % of control | dose: 3.12 mg/kg/injection, schedule: Q01DX009 (ip), vehicle: Klucel (hydroxypropylcellulose) (HPC) 104 % of control | [2] 100 % of control | [5] 89 % of control | [12] 100 % of control

Cc1cccc(NC(=O)Nc2ccccc2)c1C
inactive: [12] 100 % of control

C=CCNCC(O)c1ccccc1 (centres undefined)
inactive: [4] 103 % of control | [5] 106 % of control | [12] 109 % of control

Cc1ccc(S(=O)(=O)Cl)cc1Cl
inactive: [10] 108 % of control | [11] 97 % of control | [13] 86 % of control

NC1=CC(=O)c2ccccc2C1=O
inactive: [3] 96 % of control | [4] 99 % of control | [5] 101 % of control

CCc1cc(C)cc(OC(=O)Nc2ccc(Cl)c(Cl)c2)c1
inactive: [13] 101 % of control | dose: 200.0 mg/kg/injection, schedule: Q01DX009 (ip), vehicle: saline with Tween-80 92 % of control | dose: 400.0 mg/kg/injection, schedule: Q01DX009 (ip), vehicle: saline with Tween-80 87 % of control

CCOC(=O)c1c(N)[nH]c(SSc2[nH]c(N)c(C(=O)OCC)c2C(=O)OCC)c1C(=O)OCC
inactive: dose: 75.0 mg/kg/injection, schedule: Q01DX009 (ip), vehicle: saline 89 % of control | dose: 300.0 mg/kg/injection, schedule: Q01DX009 (ip), vehicle: saline 97 % of control

COc1ccc(C(=O)C(C)C(O)C(=O)O)c(O)c1C (centres undefined)
inactive: dose: 100.0 mg/kg/injection, schedule: Q01DX009 (ip), vehicle: other 93 % of control

Nc1ccc(-c2c(N)ncc3ccccc23)cc1
inactive: [9] 101 % of control | [10] 104 % of control | [11] 103 % of control

O=C1C=CC(=O)N1c1ccc(Cl)cc1
inactive: dose: 1.25 mg/kg/injection, schedule: Q01DX009 (ip), vehicle: Klucel (hydroxypropylcellulose) (HPC) 97 % of control

CC(C)C(=O)NNCc1ccccc1
inactive: [2] 95 % of control | [3] 97 % of control | [4] 95 % of control | [5] 90 % of control
